Laboratory results from patent publication US6657105B2 (Riken, priority 2000, dated 2003).

System: Or-Prnp transgenic mice
Settings: mouse, in vivo, 4 mg/kg

CN1[C@@H]2CC[C@H]1C[C@@H](OC(=O)C(CO)c1ccccc1)C2 (stereo partly shown) [atropine]
abnormal waves in electrocardiogram after administration of heart stimulant: only Or-Prnp transgenic mice showed the abnormal waves in electrocardiogram
